# Data as given in PubChem BioAssay AID248 (DTP/NCI, 2004).
# Toxic doses and inconclusive results are not listed.
# System: L1210 leukemia ip in BDF1 mice, survival T/C
# Test: NCI In Vivo Anticancer Drug Screen. Data for tumor model L1210 Leukemia (intraperitoneal) in B6D2F1 (BDF1) mice
# Settings: endpoint: mean survival time, higher = longer survival
# In short: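 Tumor cells were implanted, animals were treated, and survival was followed. The result divides the treated measurement by the vehicle-control measurement.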
# [1] = dose: 100.0 mg/kg/injection, schedule: Q01DX001 (ip), vehicle: saline
# [2] = dose: 200.0 mg/kg/injection, schedule: Q01DX001 (ip), vehicle: saline
# [3] = dose: 400.0 mg/kg/injection, schedule: Q01DX001 (ip), vehicle: saline
# [4] = dose: 100.0 mg/kg/injection, schedule: Q01DX001 (ip), vehicle: saline with Tween-80
# [5] = dose: 200.0 mg/kg/injection, schedule: Q01DX001 (ip), vehicle: saline with Tween-80
# [6] = dose: 100.0 mg/kg/injection, schedule: Q04DX002 (ip), vehicle: Klucel (hydroxypropylcellulose) (HPC)
# [7] = dose: 200.0 mg/kg/injection, schedule: Q04DX002 (ip), vehicle: Klucel (hydroxypropylcellulose) (HPC)
structure (smiles),measurement,setting,value
CC(C)CNS(=O)(=O)c1ncnc2nc[nH]c12,T/C,"dose: 6.0 mg/kg/injection, schedule: Q01DX Z (ip), vehicle: carboxymethylcellulose (CMC)",103 % of control
same,T/C,"dose: 12.0 mg/kg/injection, schedule: Q01DX Z (ip), vehicle: carboxymethylcellulose (CMC)",100 % of control
same,T/C,"dose: 25.0 mg/kg/injection, schedule: Q01DX Z (ip), vehicle: carboxymethylcellulose (CMC)",106 % of control
same,T/C,"dose: 50.0 mg/kg/injection, schedule: Q01DX Z (ip), vehicle: carboxymethylcellulose (CMC)",92 % of control
CCC(C#N)(CCN(CC=C(C)C)CC=C(C)C)c1cccc2ccccc12 (stereo not drawn),T/C,"dose: 100.0 mg/kg/injection, schedule: Q04DX003 (ip), vehicle: Klucel (hydroxypropylcellulose) (HPC)",96 % of control
COc1cc(C)c([N+](=O)[O-])cc1OC,T/C,[1],106 % of control
same,T/C,[2],97 % of control
same,T/C,[3],101 % of control
OC1OC(COCc2ccccc2)C(OCc2ccccc2)C1OCc1ccccc1 (stereo not drawn),T/C,[4],95 % of control
same,T/C,[5],95 % of control
Cc1ccc(P(=O)(O)O)c([N+](=O)[O-])c1,T/C,[1],94 % of control
same,T/C,[2],92 % of control
O=C(O)c1ccccc1/C=N/N1C(=O)CSC1=S,T/C,"dose: 2.5 mg/kg/injection, schedule: Q01DX001 (ip), vehicle: carboxymethylcellulose (CMC)",97 % of control
same,T/C,"dose: 5.0 mg/kg/injection, schedule: Q01DX001 (ip), vehicle: carboxymethylcellulose (CMC)",97 % of control
same,T/C,"dose: 10.0 mg/kg/injection, schedule: Q01DX001 (ip), vehicle: carboxymethylcellulose (CMC)",109 % of control
C#CCN1C(=O)C(c2ccccc2)C2(CCN(C)CC2)C1=O (stereo not drawn),T/C,[4],105 % of control
same,T/C,[5],108 % of control
CCC1(c2ccccc2)C2C(=O)NC(=O)C1C(=O)NC2=O (stereo not drawn),T/C,[1],98 % of control
same,T/C,[2],95 % of control
same,T/C,[3],101 % of control
Cc1cc2nc(C(O)C(O)C(O)C(O)c3nc4cc(C)c(C)cc4[nH]3)[nH]c2cc1C (stereo not drawn),T/C,"dose: 100.0 mg/kg/injection, schedule: Q01DX001 (ip), vehicle: other",98 % of control
same,T/C,"dose: 200.0 mg/kg/injection, schedule: Q01DX001 (ip), vehicle: other",87 % of control
same,T/C,"dose: 400.0 mg/kg/injection, schedule: Q01DX001 (ip), vehicle: other",104 % of control
C[N+](C)(C)N=C1CCCCC1,T/C,[1],104 % of control
same,T/C,[2],104 % of control
O=S(=O)(OCCCl)c1ccc(Cl)c(Cl)c1,T/C,[4],92 % of control
same,T/C,[5],100 % of control
same,T/C,"dose: 400.0 mg/kg/injection, schedule: Q01DX001 (ip), vehicle: saline with Tween-80",107 % of control
NNC(=O)CNc1ccc(F)cc1,T/C,[6],105 % of control
same,T/C,[7],114 % of control
CC1=CC(=O)C(C)(C(Cl)Cl)C=C1 (stereo not drawn),T/C,"dose: 100.0 mg/kg/injection, schedule: Q04DX003 (ip), vehicle: saline with Tween-80",95 % of control
same,T/C,"dose: 200.0 mg/kg/injection, schedule: Q04DX003 (ip), vehicle: saline with Tween-80",97 % of control
CC1C(=O)CCC2(C)CCC(C)(C)CC12 (stereo not drawn),T/C,"dose: 100.0 mg/kg/injection, schedule: Q01DX009 (ip), vehicle: saline with Tween-80",98 % of control
same,T/C,"dose: 100.0 mg/kg/injection, schedule: Q04DX003 (ip), vehicle: saline",105 % of control
same,T/C,"dose: 200.0 mg/kg/injection, schedule: Q01DX009 (ip), vehicle: saline with Tween-80",95 % of control
same,T/C,"dose: 200.0 mg/kg/injection, schedule: Q04DX003 (ip), vehicle: saline",97 % of control
same,T/C,"dose: 400.0 mg/kg/injection, schedule: Q01DX009 (ip), vehicle: saline with Tween-80",101 % of control
same,T/C,"dose: 400.0 mg/kg/injection, schedule: Q04DX003 (ip), vehicle: saline",103 % of control
O=C(/C=C/c1ccc(Cl)cc1)NCC(O)CO (stereo not drawn),T/C,"dose: 150.0 mg/kg/injection, schedule: Q04DX003 (ip), vehicle: water",100 % of control
same,T/C,"dose: 300.0 mg/kg/injection, schedule: Q04DX003 (ip), vehicle: water",105 % of control
same,T/C,"dose: 600.0 mg/kg/injection, schedule: Q04DX003 (ip), vehicle: water",102 % of control
Cc1ccc([N+](=O)[O-])cc1NC(=O)N(Cc1ccccc1)Cc1ccccc1,T/C,[6],95 % of control
same,T/C,[7],100 % of control
same,T/C,"dose: 400.0 mg/kg/injection, schedule: Q04DX002 (ip), vehicle: Klucel (hydroxypropylcellulose) (HPC)",106 % of control
OC1c2ccccc2-c2c(F)c(F)c(F)c(F)c21 (stereo not drawn),T/C,"dose: 50.0 mg/kg/injection, schedule: Q01DX001 (ip), vehicle: carboxymethylcellulose (CMC)",96 % of control
same,T/C,"dose: 100.0 mg/kg/injection, schedule: Q01DX001 (ip), vehicle: carboxymethylcellulose (CMC)",97 % of control
same,T/C,"dose: 200.0 mg/kg/injection, schedule: Q01DX001 (ip), vehicle: carboxymethylcellulose (CMC)",94 % of control
same,T/C,"dose: 400.0 mg/kg/injection, schedule: Q01DX001 (ip), vehicle: carboxymethylcellulose (CMC)",111 % of control
